In patent US7378384B2, “WT1 substitution peptides” (International Institute of Cancer Immunology, Inc., priority 2002, dated 2008):
Entries after “also recorded” stand apart in the source; their conditions may differ. Non-standard residues stand in square brackets, D forms with d. No end group written: not given here. Cit = NC(=O)NCCC[C@H](N)C(=O)O; Orn = NCCC[C@H](N)C(=O)O; Abu = CC[C@H](N)C(=O)O

What was measured:
[1] = test system: HLA-A2402/K^b transgenic mice; assay: In vivo immunogenicity (CTL-inducing activity): immunization of HLA-A2402/K^b transgenic mice, 51Cr release assay of in vitro restimulated splenocytes; set-up: species or system mouse
Protocol: In vivo immunogenicity of each antigen peptide was evaluated using the HLA-A2402/K^b transgenic mice. The preparation of the transgenic mice and the determination of in vivo immunogenicity were conducted according to WO 02/47474, and Int J. Cancer. 100, 565-570 (2002) that describe them in detail.
(§1) The non-substituted type peptide and the substituted type peptides as described above were synthesized using Fmoc method. The peptides synthesized were each adjusted to 40 mg/ml in DMSO, and each diluted with a sterilized water to 2.4 mg/ml. They were then mixed with a 1.27 parts of Freund's incomplete adjuvant (ISA51) using a glass syringe to prepare a water-in-oil emulsion. The resultant emulsion (200 μl) was injected into the HLA-A2402/K^b transgenic mouse subcutaneously in the base of the tail for immunization.
Seven days after the immunization, the spleen was removed and grounded on the frosted part of glass slide, and splenocytes were recovered and prepared. A portion of the splenocytes undergone hemolysis treatment with an ACK buffer (0.15 M NH4Cl, 10 mM KHCO3, 0.1 mM EDTA, pH 7.2-7.4) was pulsed with the above-mentioned peptide compositions at 100 μg/ml for 1 hour, and seeded into a 24-well plate at 7×10^5/well. Simultaneously, splenocytes not pulsed with any peptide (7×10^6/well) were added together, and stimulated in vitro and incubated at 37° C. for 5 to 6 days. The in vitro stimulation was carried out in RPMI1640 medium supplemented with 10% FCS, 10 mM HEPES, 20 mM L-glutamine, 1 mM sodium pyruvate, 1 mM MEM nonessential amino acids, 1% MEM vitamin and 55 μM 2-mercaptoethanol.
The test for cytotoxic activity was conducted according to the conventional manner. EL4-A2402/K^b cells obtained by transforming EL-4 cells (DAINIPPON PHARMACEUTICAL CO., LTD., Catalogue No. 06-039) with an expression vector encoding HLA-A2402/K^b, and the EL4-A2402/K^b cells pulsed with peptide A, B, C, D, E, or F were used as target cells (T). The EL4-A2402/K^b cells were prepared in a similar manner to the preparation of Jurkat-A2402/K^b cells described in WO 02/47474.
These cells were labeled with ^51Cr (3.7 MBq/10^6 cells) and pulsed with the peptide at 100 μg/ ml for an hour (The labeling was carried out over 2 hours, and 1 hour after the initiation of labeling, the peptide was added). Splenocytes in vitro stimulated and incubated were used as effector cells (E). They were combined with the target cells at various ratios, and ^51Cr release assay (J. Immunol., 1997; 159: 4753) was conducted to determine the cytotoxic activity of the effector cells. […]
as §1, with “The” for “The non-substituted type peptide and the”, “peptides” for “peptides as described above”, “physiological saline” for “sterilized water”
The test for cytotoxic activity was conducted according to the conventional manner. EL4-A2402/K^b cells obtained by transforming EL-4 cells with an expression vector encoding HLA-A2402/K^b, and the EL4-A2402/K^b cells pulsed with peptide K, L, or M were used as target cells (T).
These cells were labeled with ^51Cr (3.7 MBq/10^6 cells) and pulsed with the peptide at 100 μg/ml for an hour (The labeling was carried out over 2 hours, and 1 hour after the initiation of labeling, the peptide was added). Splenocytes in vitro stimulated and incubated were used as effector cells (E). They were combined with the target cells at various ratios, and ^51Cr release assay (J. Immunol., 1997; 159: 4753) was conducted to determine the cytotoxic activity of the effector cells.

CTLs = details: Clin. Cancer. Res. 8: 2626, 2002, and WO 00/06602; cited from earlier work
HLA-A24 antigen = details: compared with the natural type peptide WT1235-243; cited from earlier work
[2] = Example 1, s.c. immunization with peptide in ISA51 water-in-oil emulsion, splenocytes 7 days after, target EL4-A2402/K^b cells pulsed with the peptide at 100 μg/ml vs not pulsed
[3] = Example 3, peptide with KLH in ISA51 emulsion s.c., target EL4-A2402/K^b cells pulsed with the peptide at 20 μg/ml vs not pulsed
[4] = Example 4, peptide in saline/ISA51 emulsion s.c., target EL4-A2402/K^b cells pulsed with the peptide at 100 μg/ml vs not pulsed

With AMTWNQMNL [peptide H] as the substance, how does the “immunogenicity (activity to induce CTLs); cytotoxic activity (% Specific Lysis) vs E/T ratio” value (“immunogenicity … (% Specific Lysis) vs E/T ratio” below) ([1]; Example 3, peptide with KLH in ISA51 emulsion s.c., target Jurkat-A2402/K^b cells pulsed with the peptide at 20 μg/ml vs not pulsed) read?
The value was “have an immunogenicity (an activity to induce CTLs); also recorded: specific CTLs were induced”.

With AYTWNQMNL [peptide C] as the substance, how does the “immunogenicity … (% Specific Lysis) vs E/T ratio” value [1, 2] read?
The value was “specific CTLs were induced”.

With “Abu-Tyr-Thr-Trp-Asn-Gln-Met-Asn-Leu ([Abu]YTWNQMNL) [peptide D]” as the substance, how does the “immunogenicity … (% Specific Lysis) vs E/T ratio” value [1, 2] read?
Its value is “specific CTLs were induced”.

Which “activity to induce CTLs in HLA-A24-restricted manner” value (CTLs) does the source give for CMTWNQMNL [WT1235-243] here?
The value was “having an activity to induce CTLs in HLA-A24-restricted manner”.

For “CYTWNQMNL [peptide A, reference compound]”, which “binding activity to the HLA-A24 antigen” value (HLA-A24 antigen) is on record?
Its value is “higher binding activity to the HLA-A24 antigen than the natural type peptide”.

And the “immunogenicity … (% Specific Lysis) vs E/T ratio” value [1, 2]?
The value was “specific CTLs were induced”.

For “Cit Tyr Thr Trp Asn Gln Met Asn Leu ([Cit]YTWNQMNL) [peptide J]”, which “immunogenicity … (% Specific Lysis) vs E/T ratio” value [1, 3] is on record?
The value was “have an immunogenicity (an activity to induce CTLs); also recorded: specific CTLs were induced”.

Which “immunogenicity … (% Specific Lysis) vs E/T ratio” value [1, 4] does the source give for FYTWNQMNL [peptide L] here?
Its value is “have an immunogenicity (an activity to induce CTLs); also recorded: specific CTLs were induced”.

With KYTWNQMNL [peptide F] as the substance, how does the “immunogenicity … (% Specific Lysis) vs E/T ratio” value [1, 2] read?
Its value is “specific CTLs were induced”.

For LYTWNQMNL [peptide K], which “immunogenicity … (% Specific Lysis) vs E/T ratio” value [1, 4] is on record?
The value was “have an immunogenicity (an activity to induce CTLs); also recorded: specific CTLs were induced”.

With NYTWNQMNL [peptide M] as the substance, how does the “immunogenicity … (% Specific Lysis) vs E/T ratio” value [1, 4] read?
Its value is “have an immunogenicity (an activity to induce CTLs); also recorded: specific CTLs were induced”.

With “Orn Tyr Thr Trp Asn Gln Met Asn Leu ([Orn]YTWNQMNL) [peptide I]” as the substance, how does the “immunogenicity … (% Specific Lysis) vs E/T ratio” value [1, 3] read?
Its value is “have an immunogenicity (an activity to induce CTLs); also recorded: specific CTLs were induced”.

Which “immunogenicity … (% Specific Lysis) vs E/T ratio” value [1, 2] does the source give for RYTWNQMNL [peptide E] here?
Its value is “specific CTLs were induced”.

For SMTWNQMNL [peptide G], which “immunogenicity … (% Specific Lysis) vs E/T ratio” value [1, 3] is on record?
The value was “have an immunogenicity (an activity to induce CTLs); also recorded: specific CTLs were induced”.

With SYTWNQMNL [peptide B] as the substance, how does the “immunogenicity … (% Specific Lysis) vs E/T ratio” value [1, 2] read?
Its value is “specific CTLs were induced”.
